According to publication PMC3289994 (Archives of Biochemistry and Biophysics, 2012):

Experiments:
[1] = target: human serum albumin (HSA) (Homo sapiens, UniProt P02768); assay: SPR equilibrium binding of carotenoids to immobilized HSA
[2] = target: T1, β-lactoglobulin (LG) (Bos taurus, UniProt P02754); assay: SPR equilibrium binding of carotenoids to immobilized LG
T1 sequence (P02754 17-178): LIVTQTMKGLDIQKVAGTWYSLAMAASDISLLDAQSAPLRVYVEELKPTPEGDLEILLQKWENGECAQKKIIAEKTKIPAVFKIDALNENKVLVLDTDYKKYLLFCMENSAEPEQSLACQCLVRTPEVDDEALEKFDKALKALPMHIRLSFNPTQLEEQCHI

[3] = target: T2, StARD1 protein binding domain (residues 63–285) (Homo sapiens, UniProt P49675); assay: FastStep SPR equilibrium binding of carotenoids to immobilized StARD1
T2 sequence (P49675 63-285): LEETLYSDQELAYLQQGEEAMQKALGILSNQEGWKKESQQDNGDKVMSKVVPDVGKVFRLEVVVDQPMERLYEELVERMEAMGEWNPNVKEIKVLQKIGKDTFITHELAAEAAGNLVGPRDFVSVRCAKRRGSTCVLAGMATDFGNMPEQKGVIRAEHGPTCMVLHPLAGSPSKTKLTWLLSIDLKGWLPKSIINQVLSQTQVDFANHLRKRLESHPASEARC

human serum albumin (HSA), sequence (P02768 25-609): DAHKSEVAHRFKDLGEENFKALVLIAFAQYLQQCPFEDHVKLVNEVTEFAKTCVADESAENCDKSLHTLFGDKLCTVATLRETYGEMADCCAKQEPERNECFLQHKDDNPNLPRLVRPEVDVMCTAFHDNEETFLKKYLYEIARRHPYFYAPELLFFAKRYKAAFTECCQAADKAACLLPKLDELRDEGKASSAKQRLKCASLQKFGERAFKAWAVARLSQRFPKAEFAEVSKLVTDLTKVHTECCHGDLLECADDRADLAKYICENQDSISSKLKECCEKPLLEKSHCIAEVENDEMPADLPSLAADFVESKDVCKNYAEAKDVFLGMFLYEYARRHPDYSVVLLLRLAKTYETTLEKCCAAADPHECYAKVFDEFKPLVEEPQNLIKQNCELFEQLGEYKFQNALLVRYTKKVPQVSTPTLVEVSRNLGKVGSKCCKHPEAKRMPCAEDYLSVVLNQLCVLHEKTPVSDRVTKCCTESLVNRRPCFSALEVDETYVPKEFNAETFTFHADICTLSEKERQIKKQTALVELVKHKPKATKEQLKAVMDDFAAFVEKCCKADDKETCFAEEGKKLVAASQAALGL

`CC1=C(/C=C/C(C)=C/C=C/C(C)=C/C=C/C=C(C)/C=C/C=C(C)/C=C/C2=C(C)C(=O)[C@@H](O)CC2(C)C)C(C)(C)C[C@H](O)C1=O` [Astaxanthin, (3S, 3′S)-astaxanthin] was tested, and the Kd [1] was 1560 ± 30 nM, the Kd [2] was 1900 ± 50 nM and the Kd [3] was 1960 ± 90 nM.
`CC1=C[C@H](O)CC(C)(C)[C@H]1/C=C/C(C)=C/C=C/C(C)=C/C=C/C=C(C)/C=C/C=C(C)/C=C/C1=C(C)C[C@@H](O)CC1(C)C` [Lutein, (3R, 3′R, 6′R)-lutein] showed a Kd [1] of 1160 ± 40 nM, a Kd [2] of 2480 ± 80 nM and a Kd [3] of 1150 ± 60 nM.
For `CC1=C(/C=C/C(C)=C/C=C/C(C)=C/C=C/C=C(C)/C=C/C=C(C)/C=C/C2=C(C)CCCC2(C)C)C(C)(C)CCC1` [β-Carotene], the Kd [1] was 1530 ± 20 nM, the Kd [2] was 2400 ± 50 nM and the Kd [3] was 1790 ± 80 nM.
With `CC1=C(/C=C/C(C)=C/C=C/C(C)=C/C=C/C=C(C)/C=C/C=C(C)/C=C/C2=C(C)C[C@@H](O)CC2(C)C)C(C)(C)C[C@H](O)C1` [Zeaxanthin, (3R, 3′R)-zeaxanthin] the Kd [1] was 1600 ± 50 nM, the Kd [2] was 2300 ± 20 nM and the Kd [3] was 1320 ± 90 nM.
